Source: publication PMC11474028, “Lipopeptide antibiotics disrupt interactions of undecaprenyl phosphate with UptA” (Proceedings of the National Academy of Sciences of the …, 2024)
Entries after “also recorded” stand apart in the source; their conditions may differ.

Molecular target: UptA (Bacillus subtilis, UniProt O31823)
Experiment: Native MS competition of C55-P and phospholipids for UptA binding
Conditions: 4 µM UptA and 10 µM DOPG or DOPE, increasing C55-P up to 20 µM, on ice 15 min
Method: To investigate whether or not C55-P can outcompete phospholipids in binding to UptA, we incubated solutions containing UptA-DOPG with increasing concentrations of C55-P. Spectra were recorded after aliquots of the solution were equilibrated on ice for 15 min. […] We therefore hypothesised that phospholipids should be unable to outcompete C55-P bound to UptA. To test this hypothesis, we incubated UptA with C55-P and then equilibrated aliquots with an increasing concentration of DOPG. […]
The chloroform layer containing the total lipids was recovered into a clean glass vial, and the organic solvent was evaporated in a SpeedVac for 16 h. Lipid film was resuspended 200 mM ammonium acetate, 0.05% LDAO (pH 8.0) to ~0.5 mg/mL for the binding experiments.
Sample preparation for native MS
Before measurements, the protein was buffer-exchanged into 0.05% LDAO, 200 mM ammonium acetate (“MS buffer”) at the desired pH using a centrifugal buffer exchange device (Micro Bio -Spin 6, Bio-Rad). Stock solutions of lipids were prepared from chloroform/methanol solution by evaporating aliquots of known volume in a SpeedVac. After drying, the lipid films were weighed and resuspended to a final concentration of 0.5 mM in 200 mM ammonium acetate (pH8) and 0.05% LDAO by vertexing. Stock solutions of 0.5 mM amphomycin, aspartocin D, daptomycin and bacitracin, were made in the same buffer. All experiments were repeated three times from newly prepared stock solutions.
About 3 μL protein aliquot was transferred into a gold-coated borosilicate capillary (Harvard Apparatus) and was mounted on the nano ESI source of a Q-Exactive hybrid quadrupole-Orbitrap mass spectrometer (Thermo Fisher Scientific, Bremen, Germany). The instrument settings were 1.2 kV capillary voltage, S-lens RF 200%, argon UHV pressure 3.3 × 10−10 mbar, the capillary temperature was set to 200 °C, and resolution of the instrument was set to 17,500 at a transie nt time of 64 ms. […] The resulting fragments were detected in the Orbitrap (R = 280,000 @ m/z 200), averaging ~500 transients to maximise the signal-to-noise ratio. […]

Chain of UptA (O31823 whole entry): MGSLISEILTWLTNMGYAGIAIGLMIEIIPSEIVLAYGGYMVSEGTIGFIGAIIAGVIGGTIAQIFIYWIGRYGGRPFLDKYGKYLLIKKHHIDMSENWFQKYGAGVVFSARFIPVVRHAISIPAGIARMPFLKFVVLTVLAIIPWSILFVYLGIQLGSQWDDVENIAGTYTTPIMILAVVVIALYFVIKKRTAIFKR

## CC(C)=CCC/C(C)=C/CC/C(C)=C/CC/C(C)=C\CC/C(C)=C\CC/C(C)=C\CC/C(C)=C\CC/C(C)=C\CC/C(C)=C\CC/C(C)=C\CC/C(C)=C\COP(=O)(O)O [C55-P, undecaprenyl phosphate]
  displacement of phospholipid from UptA by C55-P (in words): C55-P has displaced most of DOPG from UptA; also recorded: C55-P effectively outcompete DOPE for UptA binding
